Measurements published in PMC8187380, “Lipophilic nanocrystal prodrug-release defines the extended pharmacokinetic profiles of a year-long cabotegravir” (Nature Communications, 2021).
Like-named read-outs stand apart in the source and are kept apart here. Blank lines part the entries; values can stand above or below the compound they belong to.

Key:
[1] = Plasma/blood PK after single IM injection in male Balb/cJ mice (UNMC); type: in vivo
Experimental: In mice, inguinal, axillary, branchial, and cervical lymph nodes were collected and pooled, while in rats only cervical lymph nodes were collected. Following injection, blood samples were collected at 4 h, days 1, 2, 4, 7, 14, 28, 42, and 56 and then monthly for 12 months into EDTA tubes (blood sample time points were evenly distributed between the four groups). Fifty μl of blood was immediately transferred into 950 μl methanol (containing 0.1% FA and 2.5 mM AF), vortexed, and stored at −80 °C until drug analysis. The remaining portion of the blood samples were centrifuged at 2000 × g for 5 min for plasma collection, which was stored at −80 °C until drug analysis. […] Plasma samples were collected up to day 672 and CAB and M2CAB quantification were performed by LC-MS/MS.
For blood samples, 50 µl blood collected in 950 µl of methanol was vortexed, centrifuged at 16,000 × g for 10 min at 4 °C, and 50 µl supernatant was aspirated, mixed with 50 µl IS [20 ng/ml d3-dolutegravir (d3-DTG) and 40 ng/ml stearoylated darunavir (SDRV)] in 70% methanol (containing 0.1% FA and 2.5 mM AF). d3-DTG was used as the IS (final concentration = 10 ng/ml) for the quantification of CAB, and SDRV (final concentration = 20 ng/ml) was used as the IS for quantification of M2CAB. Ten µl of the sample was analyzed by LC-MS/MS for CAB and M2CAB. […]

[2] = Chemical (pH) stability of unformulated M2CAB; type: physicochemical; settings: 37 °C, 24 h, 1 μM
Experimental: Next, we assessed the chemical stability of the solubilized form of M2CAB at a range of pHs [pH 1.0 (0.1 M HCl), pH 7.4 (PBS), pH 8.3 (heat-inactivated plasma) and pH 11.0 (0.1 M NaOH)]. […] At 24 h, percent M2CAB recovered was 87, 52, 5, and 2 at pH 1.0, pH 7.4, pH 8.3 and pH 11.0, respectively (Supplementary Fig. 3). Reductions in M2CAB prodrug concentrations paralleled native CAB formation, indicating the hydrolysis of the prodrug M2CAB into parent CAB.
Supplementary Figure 3. M2CAB pH stability. Chemical stability profile of M2CAB at pH 1.0 (0.1 M HCl), pH 7.4 (PBS), pH 8.3 (heat inactivated plasma) and pH 11.0 (0.1 M NaOH) at 1 μM drug concentration. (a) Percent M2CAB remaining vs. time profile for M2CAB; (b) Percent CAB formation vs. time profile from M2CAB. Data are expressed as mean (N = 2 replicates per time point). Each experiment was repeated independently two times with equivalent results.
(1 picture or pasted object on this page, not shown here)

[3] = Metabolic stability in blood; type: in vitro ADME, mouse, rat, rabbit, monkey, dog, human; settings: for Stability in blood: 24 h
Experimental: […] The samples were then centrifuged at 16,000 × g for 10 min after which 10 µl of the supernatant was mixed with 80% methanol (containing 0.1% FA and 2.5 mM AF) containing an internal standard (IS) and analyzed by LC-MS/MS. For the time zero start time, a 100 µl of ice-cold blood was spiked with M2CAB and immediately 0.9 ml of methanol (containing 0.1% FA and 2.5 mM AF) was added. Heat-inactivated plasma was incubated at the same conditions and used as negative controls to differentiate chemical versus metabolic stability.

[4] = Metabolic stability in liver S9 fractions; type: in vitro ADME, mouse, rat, rabbit, monkey, dog, human; settings: six species, 2 h incubation, 1 µM
Experimental: The metabolic stabilities of CAB and M2CAB were determined using mouse, rat, rabbit, dog, monkey, and human liver S9 fractions (XenoTech, LLC, Lenexa, KS, USA). Briefly, CAB and M2CAB were incubated at 1 µM in a 100 µl mixture containing S9 fractions at 1 mg/ml protein concentration, NADPH (1 mM), saccharolactone (5 mM), uridine 5′-diphospho-glucuronic acid (UDPGA) (1 mM), and 3′-phosphoadenosin-5′-phosphosulphate (PAPS) ([…]) in PBS (100 mM, pH 7.4) at 37 °C. For each time point (0, 30, and 120 min), reactions were quenched by adding 0.9 ml of methanol (containing 0.1% FA and 2.5 mM AF), followed by centrifugation at 15,000 × g for 10 min. Ten microliters of the supernatants were then analyzed by LC-MS/MS. Heat-inactivated S9 fractions were incubated at the same conditions and used as negative controls. Hydroxycoumarin (7-HC) metabolites including 7-HC-glucuronide and 7-HC-sulfate, and the testosterone metabolite 6β-hydroxytestosterone were used as positive controls for phase I and phase II metabolism.

[5] = Metabolic stability in rat tissue homogenates; type: in vitro ADME
Experimental: For metabolic stability in tissues, freshly collected rat liver, spleen, muscle, and lymph node tissues were homogenized in five-volumes of PBS (w/v). […] At different time points (0, 30 min, 2 h, and 6 h), 0.9 ml of methanol (containing 0.1% FA and 2.5 mM AF) was added to each sample and vortexed for 3 min. Samples were centrifuged at 16,000 × g for 10 min, 10 µl supernatant was mixed with 80% methanol (containing 0.1% FA and 2.5 mM AF) containing IS and analyzed by LC-MS/MS.

[6] = tested on: human monocyte-derived macrophages (MDMs); test: Cellular uptake, retention and release in macrophages; type: cell-based; settings: for Percent taken up by MDMs: 8 h, 10 µM
Experimental: Human peripheral blood monocytes were obtained by leukapheresis from HIV-1,2 and hepatitis B seronegative donors and purified by centrifugal elutriation. Monocytes were cultured for the first seven days in macrophage colony stimulating factor enriched media (MCSF, 1000 U/ml) to facilitate cell vitality and differentiation into macrophages[15],[29]. […] Cells were maintained in clear flat-bottom 12-well plates at 37 °C in a 5% CO2 incubator at a density of 1.0 × 10^6 cells per well. Half-culture media was replaced with fresh media every other day. After differentiation, MDM were utilized for CAB prodrug or drug nanoparticle uptake, retention and release. […] At days 1, 5, 10, 15, 20, and 30, adherent MDM were washed twice with PBS, scraped into PBS, and counted using an Invitrogen Countess Automated Cell Counter (Carlsbad, CA). Cell suspension was then centrifuged at 900 × g for 8 min at 4 °C. […] To quantify release kinetics, drug concentrations were measured in samples collected from the culture media from the same retention experiment using preloaded MDMs, at the same time when cells were harvested to quantify intracellular drug retention.

[7] = Stability in macrophage cell culture media and MDM-cell lysate; type: in vitro ADME, human; settings: M2CAB solution
HIV-1 = settings: no reference given; cited from earlier work
[8] = cited from earlier work
[9] = design: method as in PMID 30387005; settings: in water; cited from earlier work
[10] = macaques; cited from earlier work
SHIV = tested on: SHIV; design: method as in PMID 24594934; settings: NHP, cited from earlier work
[11] = design: method as in PMID 26340566, PMID 26049948; settings: cited from earlier work
CYP450 = tested on: CYP450; design: method as in PMID 26340566, PMID 26049948; settings: cited from earlier work

Blood concentration of the prodrug as percent of CAB ([1]; mice and rats, after NM2CAB): < 1% | Percent M2CAB recovered ([2]; pH 1.0 (0.1 M HCl)): 87% | Percent M2CAB recovered ([2]; pH 7.4 (PBS)): 52% | Percent M2CAB recovered ([2]; pH 8.3 (heat-inactivated plasma)): 5% | Percent M2CAB recovered ([2]; pH 11.0 (0.1 M NaOH)): 2% | Stability in blood ([3]; all species, 1 µM, 37 °C): unstable | Percent of M2CAB hydrolyzed ([3]; blood of dog, monkey, mouse, rat, rabbit, human, after 6 h, 1 µM, 37 °C): Greater than 80% | Time within which M2CAB was hydrolyzed into the parent CAB ([3]; blood, all species): ≤ 6 h | Stability in heat-inactivated plasma ([3]; control, 1 µM, 37 °C): unstable | Percent of M2CAB lost [4]: < 25% | Stability in heat-inactivated liver homogenate ([5]; control): unstable | Percent of M2CAB remaining/recovered ([5]; rat tissue homogenates, after 6 h incubation, 1 µM): 50–80% | Time to complete hydrolysis into CAB in cell lysates [7]: ≤ 7 days | Time to complete hydrolysis into CAB in media [7]: ≤ 3 days
Compound: CCCCCCCCCCCCCCCCCC(=O)Oc1c2n(cc(C(=O)NCc3ccc(F)cc3F)c1=O)C[C@H]1OC[C@H](C)N1C2=O [M2CAB]
Percent taken up by MDMs [6]: up to 30% | Percent released into the media (recovered as CAB) ([6]; MDMs, within days): < 95% | Percent of intracellular drug retained by MDMs ([6]; one month after 8 h loading at 10 µM): 4%

Compound: C[C@H]1CO[C@@H]2Cn3cc(C(=O)NCc4ccc(F)cc4F)c(=O)c(O)c3C(=O)N12 [CAB, cabotegravir]
Fold CAB blood concentration lower than plasma concentration ([1]; all samples (mice and rats)): ~2 fold | Stability in blood ([3]; all species, 1 µM, 37 °C): stable | Percent of CAB recovered ([3]; blood, all six species, by 24 h): more than 90% | Percent taken up by MDMs [6]: ≤ 0.1% | Intracellular CAB levels in MDMs ([6]; after 8 h drug loading at 10 µM): below or at the limit of detection within hours | Protein-adjusted 90% inhibitory concentration (PA-IC90) (HIV-1): 0.166 µg/mL | Oral bioavailability [8]: near-complete | Plasma half-life [8]: 30 to 40 h | Eliminated unchanged in feces ([8]; humans): up to 50% | Glucuronide metabolites in urine ([8]; humans): 27% | Terminal phase half-life ([8]; humans): 504 to 1200 h | Unidentified metabolites in feces ([8]; humans): 10% | tmax (oral absorption) ([8]; oral): 1.5 to 2 h | Aqueous solubility [9]: 15 µg/mL | Terminal phase half-life [10]: 72 to 288 h | Protection against intrarectal SHIV challenge (SHIV; plasma CAB concentrations >3×PA-IC90): 100% | Protection against intrarectal SHIV challenge (SHIV; plasma CAB concentrations ≥1×PA-IC90): 97% | Membrane permeability [11]: high | Affinity for CYP450 (CYP450): low
